The results in this text go back to ChEMBL document CHEMBL1909528, “Synthesis and 2D QSAR of O-sulphonated β-aminols derivatives as novel antifungal and antibacterial agents” (Bioorg Med Chem Lett, 2011).

For test [1], the system named is Aspergillus fumigatus. Description: Antifungal activity against Aspergillus fumigatus by broth microdilution method. The class given is functional. A general note: Broth dilution looks for growth in wells or tubes with falling amounts of substance.
Test [2] relates to Trichophyton mentagrophytes. In words: Antifungal activity against Trichophyton mentagrophytes by broth microdilution method. In kind it is functional, organism-based.
Test [3] deals with Candida albicans. In words: Antifungal activity against Candida albicans by broth microdilution method. In kind it is functional, organism-based.
The subject of test [4] is Sporothrix schenckii. In words: Antifungal activity against Sporothrix schenckii by broth microdilution method. The class given is functional, organism-based.
The test system of test [5] is Cryptococcus neoformans. Description: Antifungal activity against Cryptococcus neoformans by broth microdilution method. In kind it is functional.
In test [6] the test system is Candida parapsilosis. Description: Antifungal activity against Candida parapsilosis ATCC 22019 by broth microdilution method. In kind it is functional. The following applies: Lodderomyces parapsilosis.
Test [7] has as its system Escherichia coli. Description: Antibacterial activity against Escherichia coli ATCC 9637 by broth microdilution method. The class given is functional, organism-based.

As a reminder, the MIC is the least concentration at which growth counts as inhibited. A high value points to weaker potency. As for `Cc1ccc(S(=O)(=O)OC(CN(Cc2ccccc2)C(=O)OC(C)(C)C)c2ccccc2)cc1` (stereo not drawn), the minimum inhibitory concentration (MIC) was greater than 50 µM in test [1]; less than 50 µM in test [2]; less than 50 µM in test [3]; less than 50 µM in test [4]; greater than 50 µM in test [5]; greater than 50 µM in test [6]. Also, the minimum inhibitory concentration (MIC) in test [7] was less than 50 µM. Moreover, the IC50 in test [2] (read-out: IC50) is 11.7 µM; in test [2] (read-out: pIC50 (converted)), 11.7 µM; in test [3] (read-out: IC50) it was 4.07 µM; in test [3] (read-out: pIC50 (converted)), 4.07 µM; in test [4] (read-out: IC50), 32.7 µM; in test [4] (read-out: pIC50 (converted)), 32.7 µM. For the same molecule, the IC50 in test [7] (read-out: IC50) and in test [7] (read-out: pIC50 (converted)) was 7.5 µM each time.
As to `CC(C)(C)OC(=O)N(Cc1ccccc1)CC(OS(=O)(=O)c1ccc([N+](=O)[O-])cc1[N+](=O)[O-])c1ccccc1` (stereo not drawn), the MIC in test [1] was greater than 50 µM; in test [3], less than 50 µM; in test [5] it was greater than 50 µM; in test [6], greater than 50 µM; in test [7], less than 50 µM. Also, the IC50 in test [3] (read-out: IC50) was 0.54 µM; in test [7] (read-out: IC50) it was 23.3 µM; in test [7] (read-out: pIC50 (converted)), 23.3 µM.
For the molecule `CC(C)(C)OC(=O)N(Cc1ccccc1)CC(OS(=O)(=O)c1ccc(C#N)cc1)c1ccccc1` (stereo not drawn), the MIC in test [1] is greater than 50 µM; in test [2], less than 50 µM; in test [3], less than 50 µM; in test [4], less than 50 µM; in test [5], greater than 50 µM; in test [6], greater than 50 µM. The molecule further showed an MIC in test [7] of less than 50 µM. Further, the IC50 was 9.48 µM in test [2] (read-out: IC50); 9.48 µM in test [2] (read-out: pIC50 (converted)); 8.59 µM in test [3] (read-out: IC50); 8.59 µM in test [3] (read-out: pIC50 (converted)); 32.7 µM in test [4] (read-out: IC50); 32.7 µM in test [4] (read-out: pIC50 (converted)). The IC50 in test [7] (read-out: IC50) and in test [7] (read-out: pIC50 (converted)) was 18.5 µM in each case.
Consider `CC(C)(C)OC(=O)N(Cc1ccccc1)CC(OS(=O)(=O)c1cccc2ccccc12)c1ccccc1` (stereo not drawn), for which the MIC in test [1] was greater than 50 µM; in test [2], less than 50 µM; in test [5], greater than 50 µM; in test [6], greater than 50 µM; in test [7] it was less than 50 µM. Besides, the IC50 is 5.48 µM in test [2] (read-out: IC50), 5.48 µM in test [2] (read-out: pIC50 (converted)), 1.26 µM in test [7] (read-out: IC50) and 1.26 µM in test [7] (read-out: pIC50 (converted)).
Turning to `CC(C)(C)OC(=O)N(Cc1ccccc1)CC(OS(=O)(=O)c1ccc2ccccc2c1)c1ccccc1` (stereo not drawn), the MIC in test [1] was greater than 50 µM; in test [2], less than 50 µM; in test [5], greater than 50 µM; in test [6], greater than 50 µM; in test [7], less than 50 µM. The IC50 in test [2] (read-out: IC50) is 2.12 µM; in test [2] (read-out: pIC50 (converted)), 2.12 µM; in test [7] (read-out: IC50), 3.54 µM; in test [7] (read-out: pIC50 (converted)), 3.54 µM.
For `CC(C)(C)OC(=O)N(Cc1ccccc1)CC(OS(=O)(=O)c1ccc([N+](=O)[O-])cc1)c1ccccc1` (stereo not drawn), the MIC in test [1] is greater than 50 µM; in test [2] it was less than 50 µM; in test [5], greater than 50 µM; in test [6] it was greater than 50 µM; in test [7], less than 50 µM. Besides, the IC50 is 5.73 µM in test [2] (read-out: IC50), 5.73 µM in test [2] (read-out: pIC50 (converted)), 9.02 µM in test [7] (read-out: IC50) and 9.02 µM in test [7] (read-out: pIC50 (converted)).
Consider `CC(C)(C)OC(=O)N(Cc1ccccc1)CC(OS(=O)(=O)c1c(Cl)cccc1Cl)c1ccccc1` (stereo not drawn), for which the minimal inhibitory concentration (MIC) was greater than 50 µM in test [1]; less than 50 µM in test [4]; greater than 50 µM in test [5]; greater than 50 µM in test [6]; less than 50 µM in test [7]. Besides, the IC50 in test [4] (read-out: IC50) was 11.4 µM; in test [4] (read-out: pIC50 (converted)), 11.4 µM; in test [7] (read-out: IC50) it was 3.13 µM; in test [7] (read-out: pIC50 (converted)), 3.13 µM.
Consider `CC(C)(C)OC(=O)N(Cc1ccccc1)CC(OS(=O)(=O)c1ccc(F)cc1)c1ccccc1` (stereo not drawn), for which the MIC in test [1] is greater than 50 µM; in test [2] it was less than 50 µM; in test [3], less than 50 µM; in test [4], less than 50 µM; in test [5] it was greater than 50 µM; in test [6], greater than 50 µM. Further, the MIC in test [7] was less than 50 µM. Also, the IC50 was 0.46 µM in test [2] (read-out: IC50); 1.52 µM in test [3] (read-out: IC50); 1.52 µM in test [3] (read-out: pIC50 (converted)); 8.66 µM in test [4] (read-out: IC50); 8.66 µM in test [4] (read-out: pIC50 (converted)); 0.83 µM in test [7] (read-out: IC50). Moreover, in test [7] (read-out: pIC50 (converted)), the IC50 was 1.2 µM.
